This is an account of results in patent US20090018620A1, “METHOD FOR RESTORING AN E[…]” ([…], priority 2007, published 2009).

Each structure is given as a SMILES string. “Also recorded” adds a separate entry of the source.

Experiment [1] relates to LSt neurons. In words: Muscimol injection into LSt neuron area at L4 immediately before intraspinal microstimulation, BS EMG recording (FIG. 3). Type of experiment: in vivo, rat. How it is done: (§1) All procedures were in accordance with the European Communities Council Directives 86/609/EEC on the use of laboratory animals. Male adult sexually naïve Wistar rats (Janvier, Le Genest-St-Isle, France) of 275-325 grams, housed for at least 4 days in our animal facility before experimentation, were anesthetized with […] intraperitoneal urethane while body temperature was maintained at 37° C. with a homeothermic blanket. […] Custom-made bipolar steel wire electrodes (AS631, CoonerWire, CA, USA) were implanted into the exposed dorsal part of the right bulbospongiosus (BS) muscle. After suprapubic midline abdominal incision, a 1.1 mm diameter mineral oil-filled catheter was inserted into the lumen of the right seminal vesicle (SV) via its apex or the right vas deferens (VD) was cut and a 0.61 mm diameter catheter filled with isotonic salt solution inserted into the prostatic portion of the VD lumen. Then, the spine was exposed dorsally and fixed with a stereotaxic frame. Laminectomy was performed between vertebrae L1-T13 to expose […] spinal level and the dura was carefully removed. To improve intraspinal access, we incubated the spinal cord for 20 minutes with 3 units/μl collagenase type VII from Clostridium histolyticum (Sigma-Aldrich Chimie, St.Quentin Fallavier, France). To target T12 to L6 spinal levels in FIG. 2C, we performed 2-3 laminectomies on the same animal. Acute spinalization was performed through a complete spinal transection between T8 and T9 spinal levels one hour before microstimulation started. We performed bilateral sectioning of i) the hypogastric and pelvic nerves close to the major pelvic ganglion or iii) the dorsal nerves of the penis at the penile crus. A single experiment lasted 2 to 4 hours.
(§2) Monopolar spinal microstimulation was performed with a ‘Formvar’-coated nichrome wire of 50 μm diameter (AM-Systems Inc. WA, USA). Typically, the electrode was positioned on the dorsal surface at L4 spinal level, adjacent to the right of the dorsal spinal artery and lowered vertically with a hydraulic microdrive (Trent-Wells, Coulterville, Calif., USA) to ˜1600 μm depth in correspondence with the stereotaxic coordinates for laminae VII and X (S2), taking as electrode depth the read-out of the microdrive. A reference electrode was placed in the vicinity of the tail. Electrical stimuli were delivered using a pulse generator (model-2100, AM-Systems Inc. WA, USA). Biphasic rectangular current pulses of 0.5 ms duration applied in short trains of 60 to 100 pulses at 200 Hz for a total duration of 300 to 500 ms were applied. This stimulus was optimal without causing temporal overlap between stimulus and the SV/VD/BS muscle responses, according to preliminary experiments. […]

For experiment [2], the system named is LSt neurons. In words: Muscimol injection into LSt neuron area 3.4 s after LSt neuron microstimulation, during ongoing rhythmic BS EMG activity (FIG. 4). In kind it is in vivo, rat. On the procedure: as §1, §2
Where [3] appears, read: ~20 minutes after muscimol injection.

As to `NCc1cc(=O)[nH]o1` [muscimol], in the experiment with LSt neurons [1] (anesthetized rats, 50 μM muscimol injected at L4 near electrode tip, microstimulation immediately after, n=5, P<10^−5), the “BS EMG activity following microstimulation, of the control response” value came to 6±5%. The “BS EMG activity during the time of microstimulation (unrelated to the ejaculation response) in the presence of muscimol as compared to controls” value in the experiment on LSt neurons [1] (anesthetized rats, n=5, P=0.07) is given as 58±25%. In addition, the “Effect on BS EMG activity evoked by second identical microstimulation (example experiment)” value in the experiment with LSt neurons [1] (~200 nl of 50 μM muscimol in the vicinity of the electrode tip, immediately before microstimulation) was “abolished BS EMG activity”. Also, in the experiment with LSt neurons [1] (setting [3]), the “BS EMG response to third microstimulation (recovery)” value is recorded as “partial response recovery”. Besides, in the experiment with LSt neurons [2] (average of 5 animals, injection total duration 400 ms), the “Time to full suppressive effect on BS EMG activity after muscimol injection” value was at most 160 ± 120 ms. Moreover, in the experiment on LSt neurons [2] (muscimol applied 3.4 s after end of LSt neuron microstimulation, mean BS rEMG 0.3-15.3 s after injection, n=5, P<10^−5), the “Rhythmic pattern of BS EMG activity, of the control response” value is 2±2%. In addition, the “Effect on ongoing BS EMG activity (example experiment)” value with LSt neurons [2] (~200 nl of 50 μM muscimol injected 3.4 s after microstimulation, LSt neuron area adjacent to electrode tip) is given as “completely interrupted the BS EMG activity; also recorded: rapidly turned off BS EMG activity”. The “BS EMG response to microstimulation after recovery period” value in the experiment on LSt neurons [2] (setting [3]) is reported as “partial response recovery”.
